Test results published in ChEMBL document CHEMBL1201862, “PubChem BioAssay data set” (2004).
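Protocol summary: plate cells (96-well), add compound at 5 concentrations, incubate 48 h, interpolate endpoints linearly. Here, GI50 denotes the concentration required for 50% inhibition of growth.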 Activity calls are given as the source filed them. No stated cut-off is given here; in the data, active = GI50 up to about 1.1 µM and inactive = higher.

Columns and labels:
Experiment in all cases: NCI anticancer screen, dose series, 48 h
M19-MEL = system: M19-MEL
UACC-257 = system: UACC-257
HOP-62 = system: HOP-62
OVCAR-4 = system: OVCAR-4
HL-60 = system: HL-60
OVCAR-8 = system: OVCAR-8
A549 = system: A549
SR = system: SR
SF-268 = system: SF-268
COLO 205 = system: COLO 205
MOLT-4 = system: MOLT-4
SK-MEL-28 = system: SK-MEL-28
EKVX = system: EKVX
CCRF-CEM = system: CCRF-CEM
HCT-116 = system: HCT-116
SK-OV-3 = system: SK-OV-3
SK-MEL-2 = system: SK-MEL-2
RPMI-8226 = system: RPMI-8226

| SMILES | GI50 (M19-MEL) | GI50 (UACC-257) | GI50 (HOP-62) | GI50 (OVCAR-4) | GI50 (HL-60) | GI50 (OVCAR-8) | GI50 (A549) | GI50 (SR) | GI50 (SF-268) | GI50 (COLO 205) | GI50 (MOLT-4) | GI50 (SK-MEL-28) | GI50 (EKVX) | GI50 (CCRF-CEM) | GI50 (HCT-116) | GI50 (SK-OV-3) | GI50 (SK-MEL-2) | GI50 (RPMI-8226) |
| --- | --- | --- | --- | --- | --- | --- | --- | --- | --- | --- | --- | --- | --- | --- | --- | --- | --- | --- |
| COC(=O)C(=O)C(C(=O)C(=O)Nc1cc([N+](=O)[O-])ccc1C#N)c1nc2ccccc2nc1O (stereo not drawn) | > 100 µM (inactive) | > 100 µM (inactive) | > 100 µM (inactive) | > 100 µM (inactive) | > 100 µM (inactive) | > 100 µM (inactive) | > 100 µM (inactive) | > 100 µM (inactive) | > 100 µM (inactive) | > 100 µM (inactive) | > 100 µM (inactive) | > 100 µM (inactive) | 35.5 µM (inactive) | > 100 µM (inactive) | > 100 µM (inactive) | > 100 µM (inactive) |  |  |
| COC(=O)c1c(N)n[nH]c1N | > 100 µM (inactive) | > 100 µM (inactive) | > 100 µM (inactive) | > 100 µM (inactive) | > 100 µM (inactive) | > 100 µM (inactive) | > 100 µM (inactive) | > 100 µM (inactive) | > 100 µM (inactive) | > 100 µM (inactive) | > 100 µM (inactive) | > 100 µM (inactive) | > 100 µM (inactive) | > 100 µM (inactive) | > 100 µM (inactive) | > 100 µM (inactive) | > 100 µM (inactive) | > 100 µM (inactive) |
| CC(CCc1ccc2c(c1)c(N)c1ccc(N)cc1[n+]2[O-])CC(C)(C)C (stereo not drawn) | 1.44 µM (inactive) | 1.99 µM (inactive) | 1.83 µM (inactive) | 2.05 µM (inactive) | 1.3 µM (inactive) | 1.72 µM (inactive) | 1.63 µM (inactive) | 1.62 µM (inactive) | 2.2 µM (inactive) | 1.45 µM (inactive) | 1.09 µM (active) | 2.06 µM (inactive) | 1.67 µM (inactive) | 0.542 µM (active) | 1.93 µM (inactive) |  | 1.77 µM (inactive) | 1.92 µM (inactive) |
| CN(CC1NCCCC1O)C12CC3CC(CC(C3)C1)C2 (stereo not drawn) | > 100 µM (inactive) | > 100 µM (inactive) | > 100 µM (inactive) | > 100 µM (inactive) | > 100 µM (inactive) | > 100 µM (inactive) | > 100 µM (inactive) |  | > 100 µM (inactive) | > 100 µM (inactive) | > 100 µM (inactive) |  | > 100 µM (inactive) | > 100 µM (inactive) |  | > 100 µM (inactive) |  | > 100 µM (inactive) |
| CC1=C(C(=O)Nc2ccccc2)C(c2ccc(C(C)C)cc2)C(C(=O)Nc2ccccc2)=C(C)N1 | 15.6 µM (inactive) |  | 25.3 µM (inactive) | 28.5 µM (inactive) | 9.59 µM (inactive) | 22.3 µM (inactive) | 16.5 µM (inactive) | 10.6 µM (inactive) | 22.3 µM (inactive) | 12.9 µM (inactive) | 4.86 µM (inactive) | 22.3 µM (inactive) | 25.3 µM (inactive) | 13.3 µM (inactive) | 12.7 µM (inactive) | 22.9 µM (inactive) | 13.8 µM (inactive) | 6.71 µM (inactive) |
| CCc1ccccc1NC(=O)CC1NC(=O)CS1 (stereo not drawn) | > 100 µM (inactive) | > 100 µM (inactive) | > 100 µM (inactive) | > 100 µM (inactive) | > 100 µM (inactive) | > 100 µM (inactive) | > 100 µM (inactive) |  | > 100 µM (inactive) | > 100 µM (inactive) | > 100 µM (inactive) | > 100 µM (inactive) | > 100 µM (inactive) | > 100 µM (inactive) | > 100 µM (inactive) | > 100 µM (inactive) | > 100 µM (inactive) | > 100 µM (inactive) |
| CCCOP1(=O)C=C(C)C(Cl)=C(C)C1 (stereo not drawn) | 21 µM (inactive) | 17.7 µM (inactive) | 42.4 µM (inactive) | 26.9 µM (inactive) | 22.3 µM (inactive) | 27 µM (inactive) | 21.6 µM (inactive) | 17.9 µM (inactive) | 14.6 µM (inactive) | 11.2 µM (inactive) | 17.6 µM (inactive) | 18.3 µM (inactive) | 74.3 µM (inactive) | 15 µM (inactive) | 18 µM (inactive) | 38.3 µM (inactive) | 6.11 µM (inactive) | 12 µM (inactive) |
| COc1cc(Cl)c2c3c(c(C(=O)c4ccccc4)oc13)CCC2 | > 100 µM (inactive) | > 100 µM (inactive) | > 100 µM (inactive) | > 100 µM (inactive) | 53.6 µM (inactive) | > 100 µM (inactive) | > 100 µM (inactive) |  |  | > 100 µM (inactive) | > 100 µM (inactive) | > 100 µM (inactive) | > 100 µM (inactive) | > 100 µM (inactive) | > 100 µM (inactive) | > 100 µM (inactive) |  | > 100 µM (inactive) |
| COc1cc2c(cc1O)C1C(O)C(O)C=C3CCN(C2)C31 (stereo not drawn) | 2.72 µM (inactive) | 2.67 µM (inactive) | 2.92 µM (inactive) | 1.38 µM (inactive) | 2.66 µM (inactive) | 2.05 µM (inactive) | 2.11 µM (inactive) | 2.08 µM (inactive) | 2.2 µM (inactive) | 1.44 µM (inactive) | 3.15 µM (inactive) | 2.76 µM (inactive) | 3.84 µM (inactive) | 3.65 µM (inactive) | 0.158 µM (active) | 4.11 µM (inactive) | 1.83 µM (inactive) | 3.58 µM (inactive) |
| CCOC(=O)/C(O)=C(/c1n[nH]c(=O)c2ccccc12)[N+](=O)[O-] | > 100 µM (inactive) | > 100 µM (inactive) | > 100 µM (inactive) | > 100 µM (inactive) | > 100 µM (inactive) | > 100 µM (inactive) | > 100 µM (inactive) |  | > 100 µM (inactive) | > 100 µM (inactive) | > 100 µM (inactive) | > 100 µM (inactive) | 70.8 µM (inactive) | > 100 µM (inactive) | > 100 µM (inactive) | > 100 µM (inactive) | > 100 µM (inactive) | > 100 µM (inactive) |
| Cc1c2n(c(=O)[nH]c1=O)C1OC(CO)C(N=[N+]=[N-])C1O2 (stereo not drawn) | > 100 µM (inactive) | > 100 µM (inactive) | > 100 µM (inactive) | > 100 µM (inactive) | > 100 µM (inactive) | > 100 µM (inactive) | > 100 µM (inactive) | > 100 µM (inactive) | > 100 µM (inactive) | > 100 µM (inactive) | > 100 µM (inactive) | > 100 µM (inactive) | 55.3 µM (inactive) | > 100 µM (inactive) | > 100 µM (inactive) | > 100 µM (inactive) | > 100 µM (inactive) | > 100 µM (inactive) |
| CCO/C=C1\N=C(c2ccc(Cl)c(Cl)c2)OC1=O | > 100 µM (inactive) | > 100 µM (inactive) | 50 µM (inactive) | > 100 µM (inactive) | > 100 µM (inactive) | > 100 µM (inactive) | > 100 µM (inactive) |  | > 100 µM (inactive) | > 100 µM (inactive) | > 100 µM (inactive) | > 100 µM (inactive) | 41 µM (inactive) | > 100 µM (inactive) |  |  | > 100 µM (inactive) | > 100 µM (inactive) |
| O=c1c2ccccc2c2nc3ccccc3nc2n1C1CCCCC1 | > 100 µM (inactive) | > 100 µM (inactive) |  | 32.9 µM (inactive) |  | 86.3 µM (inactive) | > 100 µM (inactive) | > 100 µM (inactive) | > 100 µM (inactive) | > 100 µM (inactive) | > 100 µM (inactive) | > 100 µM (inactive) | > 100 µM (inactive) |  | > 100 µM (inactive) | > 100 µM (inactive) | > 100 µM (inactive) | > 100 µM (inactive) |
| COC(=O)C1=C(C(=O)OC)C2(c3ccccc3)OC1(c1ccccc1)c1cc3ccccc3cc12 | 1.98 µM (inactive) |  | 13.3 µM (inactive) | 1.7 µM (inactive) | 0.45 µM (active) | 1.56 µM (inactive) | 2.43 µM (inactive) |  | 1.73 µM (inactive) | 2.11 µM (inactive) | 0.733 µM (active) | 1.87 µM (inactive) | 1.8 µM (inactive) | 0.451 µM (active) |  | 11.2 µM (inactive) | 1.64 µM (inactive) | 0.764 µM (active) |
| CC(=O)O[C@H]1C(=O)[C@@]2(C)C([C@H](OC(=O)c3ccccc3)[C@]3(O)C[C@H](OC(=O)[C@H](O)[C@H](NC(=O)c4ccccc4)c4ccc(Cl)cc4)C(C)=C1C3(C)C)C1(OC(C)=O)CO[C@@H]1C[C@@H]2O (stereo partly drawn) | 0.000302 µM (active) | 0.00425 µM (active) | 0.00839 µM (active) | 0.889 µM (active) | < 0.0001 µM (active) | 0.00115 µM (active) | 0.000678 µM (active) | 0.000119 µM (active) | 0.00156 µM (active) | 0.00188 µM (active) | 0.01 µM (active) | 0.00157 µM (active) | 0.769 µM (active) | 0.00188 µM (active) | 0.000113 µM (active) | 0.00163 µM (active) | 0.00594 µM (active) | 0.000157 µM (active) |
| c1ccc(C(c2ccccc2)c2ccccn2)cc1 | > 100 µM (inactive) | > 100 µM (inactive) | > 100 µM (inactive) | > 100 µM (inactive) |  | > 100 µM (inactive) | > 100 µM (inactive) |  | > 100 µM (inactive) | > 100 µM (inactive) |  | > 100 µM (inactive) | > 100 µM (inactive) | > 100 µM (inactive) | > 100 µM (inactive) | > 100 µM (inactive) | > 100 µM (inactive) | 66.1 µM (inactive) |
